The text below walks through data of ChEMBL document CHEMBL1148883, “Hit-to-lead studies on benzimidazole inhibitors of ITK: discovery of a novel class of kinase inhibitors” (Bioorg Med Chem Lett, 2007).

One may read the IC50 as the concentration that gives 50% inhibition. The inhibition is the relative decrease from the control value, in per cent.

In assay [1] the target is T1, Tyrosine-protein kinase ITK/TSK (Homo sapiens, UniProt Q08881).
T1 sequence (Q08881 whole entry): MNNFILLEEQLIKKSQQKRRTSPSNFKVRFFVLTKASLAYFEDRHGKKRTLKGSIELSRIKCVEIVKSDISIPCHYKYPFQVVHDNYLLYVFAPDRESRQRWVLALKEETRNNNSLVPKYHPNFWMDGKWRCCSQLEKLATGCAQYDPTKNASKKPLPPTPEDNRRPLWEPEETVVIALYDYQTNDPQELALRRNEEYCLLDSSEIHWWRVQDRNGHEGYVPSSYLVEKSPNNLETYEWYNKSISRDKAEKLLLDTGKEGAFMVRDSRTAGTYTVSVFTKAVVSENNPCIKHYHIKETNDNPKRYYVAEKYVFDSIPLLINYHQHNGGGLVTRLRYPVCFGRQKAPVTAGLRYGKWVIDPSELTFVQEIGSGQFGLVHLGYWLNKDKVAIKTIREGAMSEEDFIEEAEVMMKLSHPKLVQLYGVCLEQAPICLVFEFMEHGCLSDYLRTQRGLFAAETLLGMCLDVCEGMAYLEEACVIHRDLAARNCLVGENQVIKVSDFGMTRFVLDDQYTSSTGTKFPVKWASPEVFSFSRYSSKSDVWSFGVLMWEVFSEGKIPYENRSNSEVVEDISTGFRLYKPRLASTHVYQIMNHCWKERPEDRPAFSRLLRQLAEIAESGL
As to the kind of experiment: Inhibition of human ITK by DELFIA assay.

The target in assay [2] is Cytoplasmic tyrosine-protein kinase BMX (Homo sapiens, UniProt P51813). As to the kind of experiment: Inhibition of BMX.
Cytoplasmic tyrosine-protein kinase BMX, sequence (P51813 whole entry): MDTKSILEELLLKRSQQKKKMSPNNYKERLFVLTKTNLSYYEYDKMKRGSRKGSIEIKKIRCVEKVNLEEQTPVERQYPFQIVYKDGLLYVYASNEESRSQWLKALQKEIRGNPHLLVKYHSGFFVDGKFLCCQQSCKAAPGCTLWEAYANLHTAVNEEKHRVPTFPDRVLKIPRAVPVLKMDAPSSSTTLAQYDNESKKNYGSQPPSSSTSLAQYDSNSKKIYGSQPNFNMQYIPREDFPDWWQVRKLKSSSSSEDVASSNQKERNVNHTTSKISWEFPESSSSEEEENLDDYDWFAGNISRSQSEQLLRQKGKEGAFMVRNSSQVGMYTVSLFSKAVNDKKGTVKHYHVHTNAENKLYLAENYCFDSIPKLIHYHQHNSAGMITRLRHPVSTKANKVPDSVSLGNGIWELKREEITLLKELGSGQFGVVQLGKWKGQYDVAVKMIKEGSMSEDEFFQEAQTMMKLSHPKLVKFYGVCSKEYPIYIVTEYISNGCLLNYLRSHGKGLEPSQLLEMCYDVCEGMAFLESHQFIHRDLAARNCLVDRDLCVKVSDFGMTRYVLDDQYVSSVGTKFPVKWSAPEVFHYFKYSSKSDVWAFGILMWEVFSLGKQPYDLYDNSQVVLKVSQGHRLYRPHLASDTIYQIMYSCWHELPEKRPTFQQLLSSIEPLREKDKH
Assay [3] deals with Vascular endothelial growth factor receptor 1 (Homo sapiens, UniProt P17948). As to the kind of experiment: Inhibition of VEGFR1.
The target in assay [4] is T1, Tyrosine-protein kinase ITK/TSK. As to the kind of experiment: Inhibition of human ITK in presence of 500 uM ATP.
For assay [5] the target is unchanged. Briefly: Inhibition of human ITK in presence of 3 uM ATP.
Assay [6] can be described thus: Inhibition of IRK. Further details: species or system Homo sapiens.
Another assay has as its target Ephrin type-A receptor 2 (Homo sapiens, UniProt P29317). Briefly: Inhibition of ECK.
The target of assay [7] is Tyrosine-protein kinase Lyn (Homo sapiens, UniProt P07948). As to the kind of experiment: Inhibition of LYN.
For assay [8], the target named is Cyclin-dependent kinase 2 (Homo sapiens) (UniProt P24941). Briefly: Inhibition of CDK2 at 10 uM.
Assay [9] concerns the target Platelet-derived growth factor receptor (Homo sapiens) (UniProt P09619+P16234). As to the kind of experiment: Inhibition of PDGFR at 10 uM. Type of assay: protein-complex assay.
The target in assay [10] is Fibroblast growth factor receptor 3 (Homo sapiens, UniProt P22607). As to the kind of experiment: Inhibition of FGFR3.
Fibroblast growth factor receptor 3, sequence (P22607 whole entry): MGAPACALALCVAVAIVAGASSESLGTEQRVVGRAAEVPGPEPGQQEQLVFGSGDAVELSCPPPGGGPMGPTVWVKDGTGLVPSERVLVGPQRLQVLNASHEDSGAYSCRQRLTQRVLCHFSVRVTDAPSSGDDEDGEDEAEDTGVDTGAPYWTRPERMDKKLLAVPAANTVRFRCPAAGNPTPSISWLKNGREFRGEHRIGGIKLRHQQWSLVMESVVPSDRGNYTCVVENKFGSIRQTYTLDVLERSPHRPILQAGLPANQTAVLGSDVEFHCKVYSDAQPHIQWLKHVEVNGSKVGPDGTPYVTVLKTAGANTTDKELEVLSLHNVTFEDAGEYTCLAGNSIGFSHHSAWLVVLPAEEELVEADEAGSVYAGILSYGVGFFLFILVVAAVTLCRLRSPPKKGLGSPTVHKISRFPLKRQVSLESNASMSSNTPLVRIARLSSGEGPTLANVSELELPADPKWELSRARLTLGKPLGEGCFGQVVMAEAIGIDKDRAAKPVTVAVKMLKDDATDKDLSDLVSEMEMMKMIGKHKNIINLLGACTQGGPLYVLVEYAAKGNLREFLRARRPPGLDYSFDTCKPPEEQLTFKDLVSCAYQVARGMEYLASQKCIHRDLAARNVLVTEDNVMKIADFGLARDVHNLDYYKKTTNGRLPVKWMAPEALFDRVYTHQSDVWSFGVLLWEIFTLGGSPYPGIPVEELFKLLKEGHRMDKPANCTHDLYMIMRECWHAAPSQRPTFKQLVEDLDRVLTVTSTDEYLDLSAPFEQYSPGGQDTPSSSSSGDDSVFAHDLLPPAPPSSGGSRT
In assay [11] the target is T1, Tyrosine-protein kinase ITK/TSK. Briefly: Inhibition of human ITK in presence of 20 uM ATP.
Assay [12] has the same target. Briefly: Inhibition of human ITK in presence of 100 uM ATP.
Assay [13] has as its target Serine/threonine-protein kinase Chk1 (Homo sapiens) (UniProt O14757). As to the kind of experiment: Inhibition of CHK1 at 10 uM.
The target in assay [14] is Cyclin-dependent kinase 5 (Homo sapiens) (UniProt Q00535). As to the kind of experiment: Inhibition of CDK5 at 10 uM.
The target in assay [15] is MAP kinase-activated protein kinase 2 (Homo sapiens) (UniProt P49137). Briefly: Inhibition of MAPKAPK2 at 10 uM.
MAP kinase-activated protein kinase 2 (Homo sapiens), sequence (P49137 whole entry, looked up): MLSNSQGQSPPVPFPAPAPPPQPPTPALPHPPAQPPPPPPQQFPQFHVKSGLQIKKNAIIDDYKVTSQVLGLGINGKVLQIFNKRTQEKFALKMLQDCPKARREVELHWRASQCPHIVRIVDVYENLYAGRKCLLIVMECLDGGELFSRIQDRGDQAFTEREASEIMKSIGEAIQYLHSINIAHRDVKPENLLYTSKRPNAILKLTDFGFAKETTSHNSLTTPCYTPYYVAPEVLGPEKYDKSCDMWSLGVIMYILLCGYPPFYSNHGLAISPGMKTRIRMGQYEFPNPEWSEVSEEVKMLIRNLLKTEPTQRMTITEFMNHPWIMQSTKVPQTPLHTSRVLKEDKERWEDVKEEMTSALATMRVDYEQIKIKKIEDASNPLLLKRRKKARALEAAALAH
The target in assay [16] is Protein kinase C beta type (Homo sapiens) (UniProt P05771). As to the kind of experiment: Inhibition of PKCbeta at 10 uM.
Assay [17] deals with Tyrosine-protein kinase SYK (Homo sapiens) (UniProt P43405). Briefly: Inhibition of SYK at 10 uM.
In assay [18] the target is Tyrosine-protein kinase TXK (Homo sapiens, UniProt P42681). As to the kind of experiment: Inhibition of TXK.
The target in assay [19] is T1, Tyrosine-protein kinase ITK/TSK. Briefly: Effect on human ITK in DT40 cells assessed as […] of calcium influx by FLIPR assay. It counts as cell-based.
Assay [20] has as its target Tyrosine-protein kinase JAK3 (Homo sapiens) (UniProt P52333). As to the kind of experiment: Inhibition of JAK3 at 10 uM.
For assay [21], the target named is Tyrosine-protein kinase Tec (Homo sapiens, UniProt P42680). Briefly: Inhibition of TEC.
Tyrosine-protein kinase Tec, sequence (P42680 whole entry): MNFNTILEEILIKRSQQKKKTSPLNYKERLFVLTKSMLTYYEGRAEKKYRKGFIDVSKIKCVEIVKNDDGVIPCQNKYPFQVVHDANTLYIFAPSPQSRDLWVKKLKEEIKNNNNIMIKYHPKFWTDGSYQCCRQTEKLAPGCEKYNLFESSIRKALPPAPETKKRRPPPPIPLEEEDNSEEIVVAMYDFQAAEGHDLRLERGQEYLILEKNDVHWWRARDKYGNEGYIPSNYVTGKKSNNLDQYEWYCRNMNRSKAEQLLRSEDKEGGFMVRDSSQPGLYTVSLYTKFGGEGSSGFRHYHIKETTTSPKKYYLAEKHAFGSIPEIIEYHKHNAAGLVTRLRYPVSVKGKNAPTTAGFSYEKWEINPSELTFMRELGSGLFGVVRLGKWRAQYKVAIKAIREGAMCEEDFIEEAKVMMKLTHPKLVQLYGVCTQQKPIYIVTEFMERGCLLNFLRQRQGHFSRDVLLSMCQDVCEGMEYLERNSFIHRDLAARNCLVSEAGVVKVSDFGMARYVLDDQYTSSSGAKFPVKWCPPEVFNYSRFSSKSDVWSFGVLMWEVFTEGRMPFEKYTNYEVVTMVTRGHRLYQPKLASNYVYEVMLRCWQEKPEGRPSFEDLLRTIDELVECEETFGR
Assay [22] deals with Epidermal growth factor receptor (Homo sapiens, UniProt P00533). As to the kind of experiment: Inhibition of EGFR.
The target in assay [23] is Tyrosine-protein kinase BTK (Homo sapiens, UniProt Q06187). As to the kind of experiment: Inhibition of BTK.
The target of assay [24] is Hepatocyte growth factor receptor (Homo sapiens, UniProt P08581). As to the kind of experiment: Inhibition of HGFR.
Assay [25] deals with Dual specificity mitogen-activated protein kinase kinase 1 (Homo sapiens) (UniProt Q02750). As to the kind of experiment: Inhibition of MKK1 at 10 uM.
Assay [26] has as its target Rho-associated protein kinase 2 (Homo sapiens) (UniProt O75116). Briefly: Inhibition of ROCK2 at 10 uM.

Ephrin type-A receptor 2, sequence (P29317 whole entry): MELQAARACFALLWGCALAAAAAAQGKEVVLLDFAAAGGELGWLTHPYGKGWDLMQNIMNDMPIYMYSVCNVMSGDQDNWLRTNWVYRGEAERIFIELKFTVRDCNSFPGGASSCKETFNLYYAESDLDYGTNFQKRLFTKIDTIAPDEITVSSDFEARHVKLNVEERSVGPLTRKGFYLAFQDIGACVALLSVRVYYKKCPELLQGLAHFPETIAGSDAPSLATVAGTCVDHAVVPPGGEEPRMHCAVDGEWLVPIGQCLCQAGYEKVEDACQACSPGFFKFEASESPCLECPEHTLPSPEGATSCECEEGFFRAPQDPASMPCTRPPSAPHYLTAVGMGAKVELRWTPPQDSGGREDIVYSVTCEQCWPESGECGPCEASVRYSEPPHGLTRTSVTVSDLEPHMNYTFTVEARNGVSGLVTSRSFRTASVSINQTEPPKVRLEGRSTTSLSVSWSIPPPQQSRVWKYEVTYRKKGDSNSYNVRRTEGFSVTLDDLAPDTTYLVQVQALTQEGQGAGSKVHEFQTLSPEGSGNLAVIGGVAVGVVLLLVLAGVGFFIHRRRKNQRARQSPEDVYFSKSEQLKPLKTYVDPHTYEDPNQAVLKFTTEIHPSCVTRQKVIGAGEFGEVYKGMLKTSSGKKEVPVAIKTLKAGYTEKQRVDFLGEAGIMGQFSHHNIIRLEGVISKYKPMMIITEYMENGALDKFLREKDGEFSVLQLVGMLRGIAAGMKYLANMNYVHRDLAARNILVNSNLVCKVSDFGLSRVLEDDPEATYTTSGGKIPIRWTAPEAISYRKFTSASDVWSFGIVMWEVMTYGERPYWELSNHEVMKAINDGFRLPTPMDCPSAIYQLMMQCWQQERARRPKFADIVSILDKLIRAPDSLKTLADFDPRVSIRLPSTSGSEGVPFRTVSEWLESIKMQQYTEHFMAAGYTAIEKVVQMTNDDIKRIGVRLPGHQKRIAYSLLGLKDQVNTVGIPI
Rho-associated protein kinase 2 (Homo sapiens), sequence (O75116 whole entry, looked up): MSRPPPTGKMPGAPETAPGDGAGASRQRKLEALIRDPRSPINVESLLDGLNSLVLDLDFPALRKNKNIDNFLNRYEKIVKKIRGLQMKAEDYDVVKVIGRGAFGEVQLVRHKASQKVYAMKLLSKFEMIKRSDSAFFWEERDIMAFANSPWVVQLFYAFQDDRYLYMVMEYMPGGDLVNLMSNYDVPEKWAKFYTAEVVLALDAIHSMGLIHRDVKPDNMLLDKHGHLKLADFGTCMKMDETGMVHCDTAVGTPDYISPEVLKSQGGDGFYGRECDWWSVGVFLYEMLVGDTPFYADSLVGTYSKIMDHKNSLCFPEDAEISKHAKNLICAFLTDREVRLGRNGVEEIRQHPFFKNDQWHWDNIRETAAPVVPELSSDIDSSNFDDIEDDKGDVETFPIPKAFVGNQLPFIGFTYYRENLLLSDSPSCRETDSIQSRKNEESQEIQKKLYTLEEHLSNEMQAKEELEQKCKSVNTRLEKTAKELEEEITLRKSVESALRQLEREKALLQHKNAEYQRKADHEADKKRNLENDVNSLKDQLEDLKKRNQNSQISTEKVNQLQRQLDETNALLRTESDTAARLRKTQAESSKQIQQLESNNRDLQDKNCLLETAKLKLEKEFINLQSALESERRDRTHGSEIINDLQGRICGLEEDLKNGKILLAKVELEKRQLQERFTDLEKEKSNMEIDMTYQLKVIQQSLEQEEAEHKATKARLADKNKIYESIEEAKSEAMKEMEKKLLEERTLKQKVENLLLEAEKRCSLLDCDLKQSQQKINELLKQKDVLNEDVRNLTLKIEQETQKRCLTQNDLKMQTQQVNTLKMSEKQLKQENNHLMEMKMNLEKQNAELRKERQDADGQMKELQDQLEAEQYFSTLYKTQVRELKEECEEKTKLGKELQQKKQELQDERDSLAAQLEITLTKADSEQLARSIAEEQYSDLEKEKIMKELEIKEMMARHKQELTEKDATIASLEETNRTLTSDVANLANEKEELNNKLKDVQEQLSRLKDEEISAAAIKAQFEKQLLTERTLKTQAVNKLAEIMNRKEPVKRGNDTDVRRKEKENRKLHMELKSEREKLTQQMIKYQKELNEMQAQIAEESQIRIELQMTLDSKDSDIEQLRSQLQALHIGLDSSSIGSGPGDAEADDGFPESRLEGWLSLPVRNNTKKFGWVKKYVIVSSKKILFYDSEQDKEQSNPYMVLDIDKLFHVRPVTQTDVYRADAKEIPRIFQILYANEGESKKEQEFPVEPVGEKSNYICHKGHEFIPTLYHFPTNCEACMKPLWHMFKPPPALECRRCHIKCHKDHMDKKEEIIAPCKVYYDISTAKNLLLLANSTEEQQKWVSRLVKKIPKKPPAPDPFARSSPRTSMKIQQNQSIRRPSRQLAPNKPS

For `NC(=O)CCn1c(NC(=O)c2ccccc2)nc2cc(C(=O)NC3CCCCC3)ccc21`, the IC50 in assay [1] was more than 20 µM.

On to `CN(C(=O)C1CCCCC1)c1ccc2c(c1)nc(NC(=O)c1cccs1)n2CCCN`, for which the IC50 was more than 22 µM in [2]; more than 10 µM in [3]; 1.1 µM in assay [4]; 0.025 µM in assay [5]; 0.2 µM in assay [6]; more than 10 µM against Ephrin type-A receptor 2. Further, the IC50 in assay [7] was more than 10 µM; in [10], more than 6 µM; in [11] it was 0.08 µM; in [12], 0.24 µM; in assay [1], 0.025 µM; in assay [18] it was 1.4 µM. Moreover, the IC50 in [19] is 2.4 µM; in [21], 22 µM; in assay [22], more than 6 µM; in assay [23] it was more than 22 µM; in assay [24] it was more than 10 µM. For the same molecule, the inhibition in assay [8] was 7%; in [9] it was 10%; in assay [13] it was 8%; in assay [14] it was -4%; in assay [15], 1%; in assay [16], 21%. The inhibition was 6% in [17], -7% in assay [20], -2% in assay [25] and -1% in [26].

Turning to `NC(=O)CCn1c(NC(=O)c2ccsc2)nc2cc(C(=O)NC3CCCCC3)ccc21`, the 50% inhibitory concentration (IC50) in assay [1] is more than 20 µM.

`NCCCn1c(NC(=O)c2cccs2)nc2cc(C(=O)OC3CCCCC3)ccc21` gave a 50% inhibitory concentration (IC50) in assay [1] of more than 20 µM.

In assay [1], `NC(=O)CCn1c(NC(=O)c2ccccc2)nc2cc(C(=O)N(C3CCCCC3)C3CCCCC3)ccc21` gave a 50% inhibitory concentration (IC50) of more than 20 µM.
